Key:
[1] = system: colorectal cancer patients (stage II/III) after potentially curative therapy; assay: VICTOR trial: safety (serious adverse events, early discontinuations), treated population; type: in vivo
Experimental: (§1) This was a phase III randomised, placebo-controlled double-blind trial of R in patients after potentially-curative surgery and completion of adjuvant therapy for stage II/III CRC. 7000 patients were planned to receive 25 mg R daily or an identical placebo (P) for 2 or 5 years, however the trial was terminated early after the worldwide withdrawal of R. A revised protocol and statistical analysis plan permitted detection of a reduction (HR=0.75) in risk of death with 87% power, with one pre-planned event-driven interim analysis.
(§2) Data-collection forms were amended to solicit baseline data on cardiovascular risk factors, for all patients After worldwide withdrawal of rofecoxib all investigators and patients were informed, study treatment was stopped, and follow-up continued, at 3, 6, 12, 18 and 24 months after randomisation and annually thereafter. Patients received a colonoscopy 1-2 years after primary surgery and 2- to 3-yearly thereafter; a CT scan about 1 year after surgery; clinical examination and routine blood tests at outpatient visits. All recurrences were confirmed by CT or MRI scan and patients were flagged for survival with the UK's Office of National Statistics. Adverse event data were recorded systematically throughout the study and were reviewed by the trials team (RM, DJK and MJL) to clarify diagnoses.
The original study was powered to detect a reduction in risk of death between treatments for stage II and stage III separately, (hazard ratio 0.80), with type I error 0.05. The modified statistical plan, after premature closure with 2434 patients, permitted detection of a reduction in risk of death of HR 0.75, 87% power, with type I error 0.05, and one interim analysis specified according to an O'Brien-Fleming alpha-spending rule when there were 350 events. The threshold for statistical significance for OS at this analysis is p<0.01325. OS, the primary endpoint, was measured from randomisation to death from any cause. Secondary endpoints include DFS, measured from randomisation to recurrence or death from any cause and recurrence-free survival, measured from randomisation to recurrence and/or colorectal cancer death. This is the report of the interim analysis, with 368 deaths. Kaplan-Meier curves and log-rank analysis were used for comparisons of OS and DFS. Subgroups were examined using HR plots. Hazard ratios and their confidence intervals were calculated from log-rank statistics and variances. Cox's proportional hazards models were used to estimate the treatment effect adjusted by prognostic factors. All reported p-values are two-sided. For analysis of OS, patients not reported as dead were censored at their last known date alive. For analysis of DFS, patients who were alive and recurrence-free were censored at their last known recurrence-free date. For analysis of DFS in first year after randomisation, patients who were alive and recurrence-free at one year were censored at that time. Numbers of SAEs were compared using a normal approximation to the Poisson distribution.
Serious Adverse Events (SAEs) were collected for each patient from enrolment until the data lock of November 2007. Cardiovascular thrombotic events have previously been reported in detail. In summary, of 23 confirmed cardiovascular thrombotic events that occurred within the treatment period or within 14 days after cessation, 16 occurred in the R arm and 7 in the P arm with an estimated relative risk of 2.66 (95% confidence intervals (CI) 1.03-6.86; p=0.04). These included fatal and nonfatal myocardial infarction, unstable angina, sudden death from cardiac causes, fatal and nonfatal ischemic stroke, transient ischemic attack, peripheral arterial thrombosis, peripheral venous thrombosis, and pulmonary embolism. Fourteen more cardiovascular thrombotic events, six in the R arm and eight in the P arm, were reported within the two years after the trial closure, with an overall total period unadjusted relative risk of 1.50 (95% CI 0.76-2.94; p=0.24). […]

[2] = system: colorectal cancer patients (stage II/III) after potentially curative therapy; assay: VICTOR phase III randomised placebo-controlled trial of rofecoxib: overall survival; type: in vivo, human
Experimental: as §1
Patients were randomly assigned to receive R or P at 151 hospitals in the United Kingdom. Inclusion criteria included: histologically proven stage II and III colorectal carcinoma in patients who had undergone complete resection of the primary tumour; WHO Performance Status 0 or 1; haematological, liver and renal function within the normal range. All patients had completed potentially curative therapy (surgery+/−radiotherapy+/−chemotherapy) 12 or fewer weeks previously and had given written informed consent. Patients with active peptic ulceration or gastrointestinal bleeding in the past year, a history of adverse reactions to NSAIDs, or a known sensitivity to R were excluded, as were those receiving long-term NSAID therapy (except for low-dose aspirin, <100 mg per day), those younger than 18 years, and women who were pregnant, lactating, or premenopausal but not using contraception. Patients with a history of cancer (other than adequately treated in situ carcinoma of the cervix, basal or squamous-cell carcinoma), inflammatory bowel disease, or severe congestive heart failure were also excluded.
It was planned to randomly allocate R (one 25-mg tablet daily) or identical P to 7000 patients, with half of each group receiving the study drug for 2 or 5 years. Suitable patients were randomly assigned in a double blind fashion to R or P through the VICTOR Trial Office, which supplied drugs to participating hospitals every 6 months. Minimisation was used to balance allocations by stage (II, III), disease site (colon, rectum, recto-sigmoid), age (<50, 50-59, 60-69, 70+) prior adjuvant chemotherapy and radiotherapy.
as §2
The original study was powered to detect a reduction in risk of death between treatments for stage II and stage III separately, (hazard ratio 0.80), with type I error 0.05. The modified statistical plan, after premature closure with 2434 patients, permitted detection of a reduction in risk of death of HR 0.75, 87% power, with type I error 0.05, and one interim analysis specified according to an O'Brien-Fleming alpha-spending rule when there were 350 events. The threshold for statistical significance for OS at this analysis is p<0.01325. OS, the primary endpoint, was measured from randomisation to death from any cause. Secondary endpoints include DFS, measured from randomisation to recurrence or death from any cause and recurrence-free survival, measured from randomisation to recurrence and/or colorectal cancer death. This is the report of the interim analysis, with 368 deaths. Kaplan-Meier curves and log-rank analysis were used for comparisons of OS and DFS. Subgroups were examined using HR plots. […]

CS(=O)(=O)c1ccc(C2=C(c3ccccc3)C(=O)OC2)cc1 [rofecoxib, 3-phenyl-4-(4(methylsulfonyl)phenyl)-2-(5H)-furanone]
Early discontinuation of study drug for hypertension (patients) ([1]; 1 in P): 7
Early discontinuation of study drug for renal impairment (patients) ([1]; 1 in P): 7
SAE: cardiac failure of unknown aetiology (patients) ([1]; 1 in P): 4
SAE: stable angina (patients) ([1]; 2 in P): 5
SAE: various infections (patients) ([1]; 3 in P, p=0.05): 10
Early discontinuation of study drug for diarrhea (patients) ([1]; 4 in P): 4
SAE: cardiac arrhythmias (patients) ([1]; 4 in P): 3
Early discontinuation of study drug for gastrointestinal pain or heartburn (patients) ([1]; 5 in P): 15
Early discontinuation of study drug for analgesia required for arthritis (patients) ([1]; 15 in P): 4
Overall total period unadjusted relative risk of cardiovascular thrombotic events ([1]; 95% CI 0.76-2.94, p=0.24): 1.50
Early discontinuation of study drug for heart failure (patients) ([1]; in vivo): 2
Enhanced cardiovascular adverse event profile ([1]; in vivo): 1-2%
Other SAEs (depression, neuralgia, polymyositis, epilepsy), frequency ([1]; in vivo): less than 0.2%
SAE: hypertension (patients) ([1]; in vivo): 2
Gastro-intestinal SAEs (indigestion/gastroduodenal ulceration, diarrhoea, constipation, obstruction), frequency in patients ([1]; no significant difference comparing R and P): less than 1%
All-cause SAEs (in words) ([1]; p=0.05): there was an association with R administration
Estimated relative risk of cardiovascular thrombotic events ([1]; treatment period or within 14 days after cessation, 95% CI 1.03-6.86, p=0.04): 2.66
Confirmed cardiovascular thrombotic events ([1]; within the treatment period or within 14 days after cessation, 7 in P arm): 16
Further cardiovascular thrombotic events ([1]; within the two years after the trial closure, eight in P arm): six
Number of patients still at risk (overall survival, FIG. 5) ([2]; 0 years from randomisation): 1217
Hazard ratio (HR) for dying from any cause (overall survival), R compared with P ([2]; 25 mg daily, intention-to-treat, 1217 vs 1217, 95% CI 0.77 to 1.16, P=0.57): 0.94
Number of patients still at risk (overall survival, FIG. 5) ([2]; 1 year from randomisation): 1152
Number of patients still at risk (overall survival, FIG. 5) ([2]; 2 years from randomisation): 1012
Number of patients still at risk (overall survival, FIG. 5) ([2]; 3 years from randomisation): 663
Number of patients still at risk (overall survival, FIG. 5) ([2]; 4 years from randomisation): 219
Number of patients still at risk (overall survival, FIG. 5) ([2]; 5 years from randomisation): 21
Number of deaths without recurrent disease ([2]; 14 in P group): 15
3-year Kaplan-Meier OS rate ([2]; 95% CI 85.7 to 89.6, P group 86.6): 87.6%
HR for colorectal cancer-specific mortality ([2]; R vs P, 95% CI 0.75-1.15, p=0.50): 0.93
Patient deaths with no reported cause ([2]; each group): Five
Number of deaths ([2]; over the study period, 191 in placebo group): 177
HR for dying adjusted for stage, age, radiotherapy group and aspirin use at baseline ([2]; proportional hazards analysis, 95% CI 0.78-1.17, p=0.64): 0.95

— patent publication US20100286262A1, “PTGS2 HAPLOTYPES” (priority 2007, published 2010)
